Entries after “also recorded” stand apart in the source; their conditions may differ.
How the values were obtained:
human P2X7 receptor = molecular target: T1, human P2X7 receptor (Homo sapiens, UniProt Q99572); test: bzATP-induced YO-PRO-1 dye uptake in HEK293 cells stably expressing the human P2X7 receptor; type: cell-based
T1 construct: expressed in transfected cells
T1 sequence (Q99572 1-595): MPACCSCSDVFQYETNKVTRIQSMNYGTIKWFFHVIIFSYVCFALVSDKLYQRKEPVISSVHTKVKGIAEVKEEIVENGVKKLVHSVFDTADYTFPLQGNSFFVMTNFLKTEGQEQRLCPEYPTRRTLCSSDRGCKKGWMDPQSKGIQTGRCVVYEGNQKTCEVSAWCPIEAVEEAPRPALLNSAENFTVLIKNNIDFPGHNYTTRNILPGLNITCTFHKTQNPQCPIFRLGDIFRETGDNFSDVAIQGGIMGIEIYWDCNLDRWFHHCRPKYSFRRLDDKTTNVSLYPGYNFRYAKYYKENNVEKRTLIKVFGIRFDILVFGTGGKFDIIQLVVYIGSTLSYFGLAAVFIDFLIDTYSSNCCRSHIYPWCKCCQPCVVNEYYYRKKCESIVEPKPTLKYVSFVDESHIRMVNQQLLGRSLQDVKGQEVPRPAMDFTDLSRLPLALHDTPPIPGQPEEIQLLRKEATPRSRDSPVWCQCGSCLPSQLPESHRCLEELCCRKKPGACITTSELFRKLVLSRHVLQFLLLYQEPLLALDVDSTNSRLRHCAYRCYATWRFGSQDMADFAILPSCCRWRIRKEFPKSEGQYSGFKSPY
Source text: Finally, P2X7 activation is associated with the formation of a large pore that is permeable to molecules of up to ˜1000 Da (Adinolfi et al., 2005; Cheewatrakoolpong et al., 2005; Surprenant et al., 1996).

RPE degeneration = RPE degeneration in mice after sub-retinal injection of a plasmid expressing Alu RNA, systemic drug administration; type: in vivo, mouse
Source text: FIG. 24, top row, provides flat mounts stained for zonula occludens-1 (ZO-1; red), bottom row. Degeneration is outlined if FIG. 24 by blue arrowheads. Representative images of n=4 are shown.
FIG. 36 and FIG. 37 include fundus photographs: top row; flat mounts stained for zonula occludens-1 (ZO-1; red), bottom row. Degeneration is outlined by blue arrowheads. Scale bars, 50 μm.

[1] = test system: Raji TK^+ and Raji TK^− cells; test: Phosphorylation of AZT to AZT-triphosphate in Raji TK+ and TK- cells (LC-MS); type: in vitro ADME; details: FIG. 40, 50
Source text: FIG. 50 is a standard curve of AZT-TP standards (black circle).
(§1) To determine whether LPS/ATP-induced inflammasome activation can be inhibited without RT inhibition, the present inventors utilized thymidine kinase-deficient (Raji/TK^−) and -expressing (Raji/TK^+) cells (Balzarini et al., 1989). After addition of AZT, […], but not TK^− cells, the present inventors produced AZT-triphosphate (AZT-TP), the AZT metabolite required for RT inhibition (FIG. 40; FIG. 46, FIG. 47, FIG. 48, FIG. 49, FIG. 50).
FIG. 50 is a standard curve of AZT-TP standards (black circle). […] FIG. 50 is representative of two experiments.

IL-1 beta [2] = test: LPS/ATP-induced IL-1 beta activation in Raji TK- and TK+ cells (Western blot of cell lysates); type: cell-based; details: FIG. 41
Source text: as §1
(§2) FIGS. 38-41 illustrate that NRTIs block LPS/ATP-induced inflammasome activation. […] Representative images of n=3-4 experiments are provided in each of FIGS. 38-41.

Caspase-1 [3] = test: Western blot of Caspase-1 activation in primary human RPE cells transfected with Alu RNA; type: cell-based; details: for Caspase-1 maturation caused by Alu RNA: 24 hours after Alu administration, 50-100 uM, FIG. 7; for Caspase-1 activation / cleavage (p20) induced by Alu RNA: concentration not given
Description: The bottom row is a vinculin loading control. […]
FIG. 7 is a Western blot showing that Alu RNA causes Caspase-1 maturation in primary human RPE cells at 24 hours after Alu administration (top, middle lane, lower band), which is blocked with co-treatment with azidothymidine (AZT), cordycepin, and abacavir (ABC) (50-100 uM; lanes 3-8 from left). The loading control vinculin is shown on the bottom.
FIG. 21 is a Western blot of Caspase-1 activation (p20 subunit) in primary human RPE cells transfected with Alu RNA±me-d4T.
FIG. 35 is a Western blot of Caspase-1 activation in human RPE cells transfected with Alu RNA±NRTIs (3TC, AZT, ABC).
The bottom row in FIG. 5 is a vinculin loading control. […]
Next, FIG. 7 provides evidence of AZT, cordycepin, and abacavir inhibition of inflammasome activation by Alu RNA. Indeed, Alu RNA causes NLRP3 inflammasome activation, which is marked by processing of the enzyme Caspase 1. FIG. 7 is a Western blot showing that Alu RNA causes Caspase-1 maturation in primary human RPE cells at 24 hours after Alu administration (top, lane 2, lower band), which is blocked with co-treatment with azidothymidine (AZT), cordycepin, and abacavir (ABC) (50-100 uM; Lanes 3-8). Again, the loading control vinculin is shown on the bottom.

IL-1 beta [4] = test: MSU-induced IL-1 beta secretion from PMA-differentiated THP-1 monocytes (ELISA); type: cell-based, human; details: co-administration at 25-1000 uM, FIG. 11, 12
Source text: Human THP-1 monocytes were differentiated into macrophages with PMA.
To illustrate this, human THP-1 monocytes were differentiated into macrophages with PMA. Treatment with MSU increased IL-1 beta secretion compared to non-treated cells.

IL-18 = test: LPS/ATP-induced IL-18 maturation in mouse bone marrow-derived macrophages (Western blot); type: cell-based; details: supernatants, 100 uM, FIG. 9
Source text: (§3) To produce FIG. 9, cell culture supernatants were collected after (i) no treatment, (ii) LPS treatment, or (iii) LPS/ATP treatment of mouse bone marrow-derived macrophages and run on Western blotting probing with antibodies for Caspase-1 and IL-18.

Caspase-1 [5] = test: LPS/ATP-induced Caspase-1 activation in mouse bone marrow-derived macrophages (Western blot); type: cell-based; details: mouse bone marrow-derived macrophages, supernatants; 100 uM; FIG. 9
Source text: as §3
Further, the present inventors also tested whether NRTIs blocked inflammasome activation by LPS/ATP, which is not known to signal via reverse transcriptase (Mariathasan et al., 2004; Mariathasan et al., 2006; Martinon et al., 2002).
as §2

[6] = test system: GFP-expressing lentivirus; test: Replication of a GFP-expressing lentivirus in HeLa cells; type: cell-based; details: FIG. 22
Source text: The present disclosure further provides the results of additional experiments in FIG. 21-FIG. 23.

With Clc1cccc(-c2nnnn2Cc2cccnc2)c1Cl [A438079] the “P2X7-mediated YO-PRO-1 dye uptake (fluorescence) induced by bzATP” value (human P2X7 receptor; bzATP 100 μM, 64 μM for both drugs, p<0.05, n=12, FIG. 43) was “inhibited”.
For Cc1cn([C@H]2C[C@H](N=[N+]=[N-])[C@@H](CO)O2)c(=O)[nH]c1=O [AZT, 3′-azido-2′,3′-dideoxythymidine], the “RPE degeneration caused by pAlu” value (RPE degeneration; intraperitoneal administration of AZT, FIG. 37) was “prevent RPE degeneration; also recorded: prevented”, the “P2X7-dependent uptake of YO-PRO1 after addition of bzATP” value (human P2X7 receptor; human P2X7-overexpressing HEK293 stable cell line, concentration not given) was “inhibited P2X7-dependent uptake of the fluorescent dye YO-PRO1” and the “Phosphorylation of AZT to AZT-triphosphate (AZT-TP)” value ([1]; Raji TK^+ cells) was “produced AZT-TP; also recorded: phosphorylate AZT to AZT-triphosphate (AZT-TP)”. The “Phosphorylation of AZT to AZT-triphosphate (AZT-TP)” value ([1]; Raji TK^− (thymidine kinase-deficient) cells) was “is not phosphorylated; also recorded: AZT was not phosphorylated; also recorded: AZT-TP was not detectable; also recorded: but not Raji TK^− cells”, the “IL-1 beta activation by LPS/ATP” value (IL-1 beta [2]; Raji TK^+ cells) was “blocks IL-1 beta activation” and the “IL-1 beta activation by LPS/ATP” value (IL-1 beta [2]; Raji TK^− cells) was “still blocks LPS/ATP-induced interleukin-1 beta secretion; also recorded: still inhibited LPS/ATP-induced interleukin-1 beta maturation; also recorded: blocks IL-1 beta activation”. For the same molecule, the “Caspase-1 maturation caused by Alu RNA” value (Caspase-1 [3]) was “blocked” and the “Caspase-1 activation / cleavage (p20) induced by Alu RNA” value (shortened to “Caspase-1 activation / cleavage”) (Caspase-1 [3]; FIG. 21, 34, 35, 51-53) was “block Caspase 1 activation by Alu RNA; also recorded: block Caspase-1 cleavage induced by Alu RNA”.
In the case of Clc1ccc(C(c2ccc(Cl)cc2)n2cc[n+](CC(OCc3ccc(Cl)cc3Cl)c3ccc(Cl)cc3Cl)c2)cc1 (stereo not shown) [calmidazolium], the “Caspase-1 activation / cleavage” value (Caspase-1 [3]; FIG. 21, 34, 35, 51-53) is reported as “not inhibited”.
With Nc1ncnc2c1ncn2[C@@H]1O[C@H](CO)C[C@H]1O [cordycepin] the “IL-1 beta secretion induced by MSU” value (IL-1 beta [4]) was “did not significantly affect IL-1beta secretion”, the “IL-18 maturation induced by LPS/ATP” value (IL-18) was “inhibit” and the “Caspase-1 maturation caused by Alu RNA” value (Caspase-1 [3]) was “blocked”. For the same molecule, the “Caspase-1 activation (active p20 band) induced by LPS/ATP” value (Caspase-1 [5]) was “inhibit”.
With COC[C@@H]1C=C[C@H](n2cc(C)c(=O)[nH]c2=O)O1 [me-d4T, 5′-OCH3-d4T] the “Alu-induced RPE degeneration” value (RPE degeneration; me-d4T intraperitoneal injection, n=4, FIG. 24) was “prevents Alu-induced RPE degeneration in mice”, the “Replication of a GFP-expressing lentivirus” value ([6]; HeLa cells) was “does not block lentivirus replication” and the Reverse transcriptase inhibition ([6]; confirmed by lentivirus replication) was “does not inhibit reverse transcriptase”. For the same molecule, the “Caspase-1 activation / cleavage” value (Caspase-1 [3]; FIG. 21, 34, 35, 51-53) was “blocks Caspase-1 activation in human RPE cells” and the “Caspase-1 activation / cleavage” value (Caspase-1 [3]; FIG. 21, 34, 35, 51-53, listed as 5′-methoxy-d4T) was “block Caspase 1 activation by Alu RNA”.
